Experiments:
[1] = biological target: T1, rat CYP17 (rat testicular microsomes) (Rattus norvegicus, UniProt P11715); assay: CYP17 inhibition assay in rat testicular microsomes; assay type: biochemical
T1 construct: Rat testis tissue was collected and disrupted with 30 strokes of a glass homogenizer; from tissue; host or cells: rat testis (microsomes)
T1 sequence (P11715 1-507): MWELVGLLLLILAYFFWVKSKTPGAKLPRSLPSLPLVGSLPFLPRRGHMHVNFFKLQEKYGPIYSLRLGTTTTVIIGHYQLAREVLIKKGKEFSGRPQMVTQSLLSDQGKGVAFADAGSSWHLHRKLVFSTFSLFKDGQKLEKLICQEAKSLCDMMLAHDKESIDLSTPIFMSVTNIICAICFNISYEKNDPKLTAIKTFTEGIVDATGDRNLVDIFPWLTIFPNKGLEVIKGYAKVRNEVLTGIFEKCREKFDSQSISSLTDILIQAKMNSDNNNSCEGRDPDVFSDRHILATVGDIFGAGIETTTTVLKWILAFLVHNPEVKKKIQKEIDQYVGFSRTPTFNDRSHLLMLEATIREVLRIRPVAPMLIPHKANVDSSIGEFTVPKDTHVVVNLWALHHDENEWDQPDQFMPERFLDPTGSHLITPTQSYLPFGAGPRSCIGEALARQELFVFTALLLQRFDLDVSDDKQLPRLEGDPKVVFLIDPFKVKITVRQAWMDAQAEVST
Summary of the method: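 Rat testicular microsomes (150–160 μg) or yeast microsomes expressing human CYP17 (1.7 pmol) react with ³H-17α-hydroxypregnenolone (1 μCi/reaction) and 325 μM NADPH in potassium phosphate buffer, pH 7.4. Compound is pre-incubated with substrate for 15 min, then the reaction runs 60 min at 37 °C. After chloroform extraction and charcoal treatment, aqueous radioactivity is measured by scintillation counting.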

[2] = biological target: T2, human CYP17 in H295R adrenocortical carcinoma cells (Homo sapiens, UniProt P05093); assay: Cell-based human CYP17 inhibition assay, H295R cells; conditions: 16 hours, read-out: CYP17 (human H295R adrenal cells)
T2 construct: H295R Adrenocortical carcinoma cells [NCI-H295A, ATCC Number CRL-2128, American Type Culture Collection; host or cells: H295R adrenocortical carcinoma cells
T2 sequence (P05093 1-508): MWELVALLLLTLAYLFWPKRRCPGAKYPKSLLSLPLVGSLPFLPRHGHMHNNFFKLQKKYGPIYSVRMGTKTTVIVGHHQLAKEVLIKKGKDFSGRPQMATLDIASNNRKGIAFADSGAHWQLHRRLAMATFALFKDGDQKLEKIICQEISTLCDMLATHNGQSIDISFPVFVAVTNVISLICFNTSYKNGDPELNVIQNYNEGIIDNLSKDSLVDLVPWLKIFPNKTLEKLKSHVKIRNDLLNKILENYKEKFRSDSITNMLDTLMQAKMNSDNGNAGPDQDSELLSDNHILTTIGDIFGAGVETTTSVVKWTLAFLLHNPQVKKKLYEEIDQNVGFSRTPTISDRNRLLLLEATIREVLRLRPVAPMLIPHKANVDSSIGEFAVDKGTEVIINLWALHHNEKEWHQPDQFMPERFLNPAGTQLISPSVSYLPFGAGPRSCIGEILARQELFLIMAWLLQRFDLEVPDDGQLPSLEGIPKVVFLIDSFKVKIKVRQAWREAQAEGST
Summary of the method: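 H295R cells or LNCaP cells stably transfected with full-length human CYP17A1 (30,000/well) incubated 16 h at 37 °C with ³H-17α-hydroxypregnenolone and compound (top 10 μM, 3-fold dilutions, up to 10 concentrations). Medium chloroform-extracted and charcoal-treated; aqueous-phase radioactivity counted by scintillation.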

IC50 [1] [nM]	IC50 [2] [nM]	SMILES
50 to 200	201 to 10000	CCC(O)(c1ccncc1)c1ncc(-c2cn[nH]c2)o1 (centres unmarked) [Example 57, 1-(5-(1H-pyrazol-4-yl)oxazol-2-yl)-1-(pyridin-4-yl)propan-1-ol]
< 50	50 to 200	CC(O)(c1ccncc1)c1cnc(-c2ccc(C(F)(F)F)cc2)s1 (centres unmarked) [Example 26, 1-(Pyridin-4-yl)-1-(2-(4-(trifluoromethyl)phenyl)thiazol-5-yl)ethanol]
< 50	50 to 200	CC(O)(c1ccncc1)c1ncc(-c2ccc(F)cc2)s1 (single isomer, unassigned; (+)) [Example 55, (+)-1-(5-(4-fluorophenyl)thiazol-2-yl)-1-(pyridin-4-yl)ethanol]
< 50	< 50	CC(O)(c1ccncc1)c1cnc(-c2ccc(C(F)(F)F)c(Cl)c2)s1 (centres unmarked) [Example 41, 1-(2-(3-chloro-4-(trifluoromethyl)phenyl)thiazol-5-yl)-1-(pyridin-4-yl)ethanol]

Reference: patent publication US8809372B2, “Pyridine derivatives” (Endo Pharmaceuticals, Inc., priority 2011, dated 2014)
